We go through 25 compounds from patent publication US10017475B2, “Anti-vasculature and anti-tubulin combretastatin analogs for treatment of cancer” (XAVIER UNIVERSITY OF LOUISIANA, priority 2014, dated 2018).

In general, IC50 refers to the midpoint of a concentration-inhibition curve. A word on the melting point: it is the temperature, or range, at which the solid turns liquid.

For data set [1], the system named is A549. Description: Antiproliferative assay (resazurin, 72 h). Conditions: A549, 72 h incubation, read-out: Growth Inhibition IC50 A549. Type of data set: cell-based, human. As to the method: (§1) Cells were seeded in 96-well plates (5×10^3 cells/well) containing 50 μL growth medium for 24 hours. After medium removal, 100 μL fresh medium containing individual analog compound at different concentrations was added to each well and incubated at 37° C. for 72 h. […] After 72 h of incubation, 20 μL of resazurin was added for 2 h before recording fluorescence at 560 nm (excitation) and 590 nm (emission) using a Victor microtiter plate fluorimeter (Perkin-Elmer, USA).
(In general: Resazurin is reduced to fluorescent resorufin, in cell work by metabolically active cells.)

The test system of data set [2] is HeLa. Description: Antiproliferative assay (resazurin, 72 h). Type of data set: cell-based, human. Conditions: 72 h incubation, read-out: Growth Inhibition IC50 HeLa. The protocol: as §1
The subject of data set [3] is MDA-MB-231. Description: Antiproliferative assay (resazurin, 72 h). Type of data set: cell-based, human. Conditions: MDA-MB-231, 72 h incubation, read-out: Growth Inhibition IC50 MDA-MB-231. As to the method: as §1

Like-named read-outs stand apart in the source and are kept apart here. Bounds are passed on as bounds.

The compound `COc1cc(-c2cccc(Br)n2)cc(OC)c1OC` [Compound 2a, 2-Bromo-6-(3,4,5-trimethoxyphenyl)pyridine] yielded a melting point of 100 to 102 °C. Also, in data set [1] (Homo sapiens, A549, 72 h), the IC50 turned out to be 9 µM. Further, in data set [2] (Homo sapiens, 72 h), the IC50 worked out at 12 µM. Besides, the IC50 in data set [3] (Homo sapiens, MDA-MB-231, 72 h) worked out at 6 µM.

In the case of `COc1ccc(-c2cccc(Br)n2)cc1OC` [Compound 2b, 2-Bromo-6-(3,4-dimethoxyphenyl)pyridine], the IC50 is > 25 µM in data set [1] (Homo sapiens, A549, 72 h); > 50 µM in data set [2] (Homo sapiens, 72 h); > 25 µM in data set [3] (Homo sapiens, MDA-MB-231, 72 h).

With `COc1ccc(-c2cccc(Br)n2)c(OC)c1` [Compound 2c, 2-Bromo-6-(2,4-dimethoxyphenyl)pyridine], the IC50 in data set [1] (Homo sapiens, A549, 72 h) is > 50 µM; in data set [2] (Homo sapiens, 72 h) it was > 50 µM; in data set [3] (Homo sapiens, MDA-MB-231, 72 h) it was > 100 µM.

In the case of `COc1ccc(-c2cccc(Br)n2)cc1` [Compound 2d, 2-Bromo-6-(4-methoxyphenyl)pyridine], the melting point lay in the range of 99 to 100 °C. The IC50 in data set [1] (Homo sapiens, A549, 72 h) was 2 µM. Moreover, the 50% inhibitory concentration (IC50) in data set [2] (Homo sapiens, 72 h) is 2 µM. The IC50 in data set [3] (Homo sapiens, MDA-MB-231, 72 h) turned out to be 10 µM.

In the case of `COc1cc(-c2ccc(Br)cn2)cc(OC)c1OC` [Compound 2e, 5-Bromo-2-(3,4,5-trimethoxyphenyl)pyridine], the melting point was 49 to 50 °C. The IC50 in data set [1] (Homo sapiens, A549, 72 h) was > 25 µM. Further, in data set [2] (Homo sapiens, 72 h), the IC50 came out at 14 µM. Also, the half-maximal inhibitory concentration (IC50) in data set [3] (Homo sapiens, MDA-MB-231, 72 h) came out at 12 µM.

Take `COc1ccc(-c2ccc(Br)cn2)c(OC)c1` [Compound 2f, 5-Bromo-2-(2,4-dimethoxyphenyl)pyridine]: the IC50 in data set [1] (Homo sapiens, A549, 72 h) was > 100 µM; in data set [2] (Homo sapiens, 72 h), > 25 µM; in data set [3] (Homo sapiens, MDA-MB-231, 72 h), > 100 µM.

For `COc1cc(-c2cccc(-c3cc(OC)c(OC)c(OC)c3)n2)cc(OC)c1OC` [Compound 3a, 2,6-Bis(3,4,5-trimethoxyphenyl)pyridine], the IC50 is > 50 µM in data set [1] (Homo sapiens, A549, 72 h); 1 µM in data set [2] (Homo sapiens, 72 h); 11 µM in data set [3] (Homo sapiens, MDA-MB-231, 72 h).

In turn, `COc1ccc(-c2cccc(-c3ccc(OC)c(OC)c3)n2)cc1OC` [Compound 3b, 2,6-Bis(3,4-dimethoxyphenyl)pyridine] showed a melting point of 140 to 141 °C. Moreover, the IC50 in data set [1] (Homo sapiens, A549, 72 h) is > 50 µM. Besides, in data set [2] (Homo sapiens, 72 h), the half-inhibitory concentration (IC50) was > 25 µM. In data set [3] (Homo sapiens, MDA-MB-231, 72 h), the IC50 was > 50 µM.

Consider `COc1ccc(-c2cccc(-c3ccc(OC)cc3OC)n2)c(OC)c1` [Compound 3c, 2,6-Bis(2,4-dimethoxyphenyl)pyridine], for which the melting point lay in the range of 113 to 114 °C. In addition, in data set [1] (Homo sapiens, A549, 72 h), the IC50 came out at 0.079 µM. The IC50 in data set [2] (Homo sapiens, 72 h) amounted to 0.011 µM. Besides, the IC50 in data set [3] (Homo sapiens, MDA-MB-231, 72 h) came to 0.075 µM.

For the compound `COc1ccc(-c2cccc(-c3ccc(OC)cc3)n2)cc1` [Compound 3d, 2,6-Bis(4-methoxyphenyl)pyridine], the melting point lay in the range of 156 to 158 °C. Also, the IC50 in data set [1] (Homo sapiens, A549, 72 h) is > 100 µM. The IC50 in data set [2] (Homo sapiens, 72 h) was found to be 2 µM. Besides, the IC50 in data set [3] (Homo sapiens, MDA-MB-231, 72 h) amounted to 9 µM.

Turning to `COc1cc(-c2ccc(-c3cc(OC)c(OC)c(OC)c3)nc2)cc(OC)c1OC` [Compound 3e, 2,5-Bis(3,4,5-trimethoxyphenyl)pyridine], the IC50 is > 100 µM in data set [1] (Homo sapiens, A549, 72 h); 2.68 µM in data set [2] (Homo sapiens, 72 h); 11 µM in data set [3] (Homo sapiens, MDA-MB-231, 72 h).

`COc1cc(-c2ccnc(-c3cc(OC)c(OC)c(OC)c3)c2)cc(OC)c1OC` [Compound 3f, 2,4-Bis(3,4,5-trimethoxyphenyl)pyridine]: the results for the IC50 in data set [1] (Homo sapiens), in data set [2] (Homo sapiens) and in data set [3] (Homo sapiens) were 7.86 µM, 0.79 µM and 2.63 µM, respectively.

For `COc1ccc(-c2ccc(-c3ccc(OC)cc3OC)nc2)c(OC)c1` [Compound 3g, 2,5-Bis(2,4-dimethoxyphenyl)pyridine], the melting point was in the range of 124 to 125 °C. In data set [1] (Homo sapiens, A549, 72 h), the concentration for half-maximal inhibition (IC50) was > 100 µM. For the same compound, the IC50 in data set [2] (Homo sapiens, 72 h) was > 50 µM. For the same compound, the IC50 in data set [3] (Homo sapiens, MDA-MB-231, 72 h) was > 100 µM.

Turning to `COc1ccc(-c2ccnc(-c3ccc(OC)cc3OC)c2)c(OC)c1` [Compound 3h, 2,4-Bis(2,4-dimethoxyphenyl)pyridine], the melting point fell in the range of 95 to 97 °C. In addition, in data set [1] (Homo sapiens, A549, 72 h), the IC50 is > 50 µM. The IC50 in data set [2] (Homo sapiens, 72 h) is > 25 µM. In data set [3] (Homo sapiens, MDA-MB-231, 72 h), the IC50 was > 50 µM.

Turning to `COc1cc(-c2cccc(-c3ccc(O)cc3)n2)cc(OC)c1OC` [Compound 4a, 4-(6-(3,4,5-Trimethoxyphenyl)pyridin-2-yl)phenol], the melting point is 92 to 94 °C (dec.). For the same compound, the IC50 in data set [1] (Homo sapiens, A549, 72 h) was > 25 µM. In addition, the half-inhibitory concentration (IC50) in data set [2] (Homo sapiens, 72 h) is 8 µM. Besides, the IC50 in data set [3] (Homo sapiens, MDA-MB-231, 72 h) was found to be 10 µM.

In the case of `COc1ccc(-c2cccc(-c3ccc(O)cc3)n2)cc1OC` [Compound 4b, 4-(6-(3,4-Dimethoxyphenyl)pyridin-2-yl)phenol], the melting point is 70 to 72 °C (dec.). Besides, the half-maximal inhibitory concentration (IC50) in data set [1] (Homo sapiens, A549, 72 h) was > 100 µM. The IC50 in data set [2] (Homo sapiens, 72 h) came out at 0.86 µM. In data set [3] (Homo sapiens, MDA-MB-231, 72 h), the IC50 is > 50 µM.

In turn, `COc1ccc(-c2cccc(-c3cc(OC)c(OC)c(OC)c3)n2)cc1OC` [Compound 4c, 2-(3,4-Dimethoxyphenyl)-6-(3,4,5-trimethoxyphenyl)pyridine] showed a melting point of 107 to 108 °C. The IC50 in data set [1] (Homo sapiens, A549, 72 h) is > 50 µM. Further, the 50% inhibitory concentration (IC50) in data set [2] (Homo sapiens, 72 h) was 0.026 µM. Also, in data set [3] (Homo sapiens, MDA-MB-231, 72 h), the half-inhibitory concentration (IC50) came to 2.49 µM.

Take `COc1ccc(-c2cccc(-c3ccc(OC)c(OC)c3)n2)cc1` [Compound 4d, 2-(3,4-Dimethoxyphenyl)-6-(4-methoxyphenyl)pyridine]: the half-maximal inhibitory concentration (IC50) in data set [1] (Homo sapiens, A549, 72 h) is > 25 µM; in data set [2] (Homo sapiens, 72 h), > 25 µM; in data set [3] (Homo sapiens, MDA-MB-231, 72 h) it was > 25 µM.

For the compound `COc1ccc(-c2cccc(-c3ccc(OC)c(OC)c3)n2)c(OC)c1` [Compound 4e, 2-(2,4-Dimethoxyphenyl)-6-(3,4-dimethoxyphenyl)pyridine], the melting point was 100 to 101 °C. Also, the IC50 in data set [1] (Homo sapiens, A549, 72 h) was > 25 µM. For the same compound, in data set [2] (Homo sapiens, 72 h), the IC50 was > 50 µM. In addition, the half-maximal inhibitory concentration (IC50) in data set [3] (Homo sapiens, MDA-MB-231, 72 h) was 13 µM.

Compound `COc1ccc(-c2cccc(-c3cc(OC)c(OC)c(OC)c3)n2)cc1` [Compound 4f, 2-(4-Methoxyphenyl)-6-(3,4,5-trimethoxyphenyl)pyridine] showed a melting point of 112 to 114 °C. For the same compound, the IC50 in data set [1] (Homo sapiens, A549, 72 h) is > 50 µM. Also, the IC50 in data set [2] (Homo sapiens, 72 h) was > 50 µM. Moreover, the IC50 in data set [3] (Homo sapiens, MDA-MB-231, 72 h) was > 25 µM.

Regarding `COc1cc(OC)cc(-c2cccc(-c3ccc(OC)cc3OC)n2)c1` [Compound 4l, 2-(2,4-Dimethoxyphenyl)-6-(3,5-dimethoxyphenyl)pyridine], the IC50 in data set [1] (Homo sapiens, A549, 72 h) is > 25 µM; in data set [2] (Homo sapiens, 72 h) it was > 50 µM; in data set [3] (Homo sapiens, MDA-MB-231, 72 h), > 25 µM.

For `COc1ccc(-c2cccc(-c3cc(OC)ccc3OC)n2)c(OC)c1` [Compound 4m, 2-(2,4-Dimethoxyphenyl)-6-(2,5-dimethoxyphenyl)pyridine], the half-inhibitory concentration (IC50) stood at 0.33 µM in data set [1] (Homo sapiens, A549, 72 h); 0.034 µM in data set [2] (Homo sapiens, 72 h); 0.034 µM in data set [3] (Homo sapiens, MDA-MB-231, 72 h).

In the case of `COc1cccc(-c2cccc(-c3ccc(OC)cc3OC)n2)c1` [Compound 4p, 2-(2,4-Dimethoxyphenyl)-6-(3-methoxyphenyl)pyridine], the IC50 in data set [1] (Homo sapiens, A549, 72 h) stood at 0.56 µM; in data set [2] (Homo sapiens, 72 h), 0.067 µM; in data set [3] (Homo sapiens, MDA-MB-231, 72 h), 9.02 µM.

With `COc1ccc(-c2cccc(-c3ccccc3OC)n2)c(OC)c1` [Compound 4r, 2-(2,4-Dimethoxyphenyl)-6-(2-methoxyphenyl)pyridine], the IC50 was > 50 µM in data set [1] (Homo sapiens, A549, 72 h); > 25 µM in data set [2] (Homo sapiens, 72 h); > 25 µM in data set [3] (Homo sapiens, MDA-MB-231, 72 h).

In the case of `COc1ccc(-c2cccc(-c3ccc(OC)c(O)c3)n2)c(OC)c1` [Compound 5, 2-(2,4-Dimethoxyphenyl)-6-(3-hydroxy-4-methoxyphenyl) pyridin-1-ium chloride], the results for the half-inhibitory concentration (IC50) in data set [1], in data set [2] and in data set [3] were 0.042 µM, 0.0026 µM and 0.0054 µM, respectively.
